Test results taken from US20020094522A1, “Means and methods for monitoring non-nucleoside reverse transcriptase inhibitor antiretroviral therapy and guiding therapeutic decisions in the treatment of HIV/AIDS” (priority 2000, published 2002).
Read-outs that look alike come from different tables or passages of the source.

What was measured:
Format in all cases: cell-based, HIV-1
[1] = system: G190A-RTV (HIV reverse transcriptase G190A); assay: Phenotypic susceptibility assay, G190A-RTV
Source text: (§1) The resistance test vectors containing a functional luciferase gene cassette were constructed and host cells were transfected with the resistance test vector DNA. The resistant test vectors contained patient-derived reverse transcriptase and protease sequences that were either susceptible or resistant to the antiretroviral agents, such as nucleoside reverse transcriptase inhibitors, non-nucleoside reverse transcriptase inhibitors and protease inhibitors. The resistance test vector viral particles produced by transfecting the resistance test vector DNA into host cells, either in the presence or absence of protease inhibitors, were used to infect target host cells grown either in the absence of NRTI or NNRTI or in the presence of increasing concentrations of the drug. The amount of luciferase activity produced in infected target host cells in the presence of drug was compared to the amount of luciferase produced in infected target host cells in the absence of drug. Drug resistance was measured as the amount of drug required to inhibit by 50% the luciferase activity detected in the absence of drug (inhibitory concentration 50%, IC50). The IC50 values were determined by plotting percent drug inhibition vs. log10 drug concentration.
(§2) Host cells were seeded in 10-cm-diameter dishes and were transfected several days after plating with resistance test vector plasmid DNA and the envelope expression vector. Transfections were performed using a calcium-phosphate precipitation procedure. The cell culture media containing the DNA precipitate was replaced with fresh medium, from one to 24 hours, after transfection. Cell culture media containing resistance test vector viral particles was harvested one to four days after transfection and was passed through a […] filter before being stored at −80° C. HIV capsid protein (p24) levels in the harvested cell culture media were determined by an EIA method as described by the manufacturer (SIAC; Frederick, Md.). Before infection, target cells (293 and 293/T) were plated in cell culture media. Control infections were performed using cell culture media from mock transfections (no DNA) or transfections containing the resistance test vector plasmid DNA without the envelope expression plasmid. One to three or more days after infection the media was removed and cell lysis buffer (Promega) was added to each well. […] The inhibitory effect of the drug was determined using the following equation: […]
where RLUluc [drug] is the relative light unit of luciferase activity in infected cells in the presence of drug and RLUluc is the Relative Light Unit of luciferase activity in infected cells in the absence of drug. […]

[2] = system: E138A-RTV (HIV reverse transcriptase E138A); assay: Phenotypic susceptibility assay, E138A-RTV; details: site directed mutant
Source text: as §1, with “Drug resistance was measured as the amount of drug required to inhibit by 50% the luciferase activity detected in the absence of drug (inhibitory concentration 50%, IC50).” left out
(§3) Host cells were seeded in 10-cm-diameter dishes and were transfected several days after plating with resistance test vector plasmid DNA and the envelope expression vector. […] HIV capsid protein (p24) levels in the harvested cell culture media were determined by an EIA method as described by the manufacturer (SIAC; Frederick, Md.). […] The inhibitory effect of the drug was determined using the following equation: […]
The E138A mutation alone and in combination with Y188L was introduced into resistance test vectors using the megaprimer method for site-directed mutagenesis (Sakar and Sommar, Ibid.). Resistance test vectors containing the E138A mutation (E138A-RTV) or the E138 mutation along with the […] mutation (E138A-Y188L-RTV) were then tested using the phenotypic assay described earlier and the results were compared to those determined using a genetically defined resistance test vector that was wild type at positions 188 and 138.

[3] = system: RTV-300 (patient sample 97-300); assay: Phenotypic susceptibility assay, RTV-300; details: RTV-300, patient-derived pool
Procedure: Transfections were performed using a calcium-phosphate precipitation procedure. […] Cell lysates were assayed for luciferase activity (FIG. 3).
The drug inhibition curves are shown in (FIG. 3).
A resistance test vector was constructed as described in Example 1 from a patient sample designated 97-300. This patient had been previously treated with d4T and 3TC (NRTIs), indinavir (a PRI) and efavirenz (an NNRTI). Isolation of viral RNA and RT/PCR was used to generate a patient derived segment that comprised viral sequences coding for all of PR and aa 1-313 of RT. The PDS was inserted into an indicator gene viral vector to generate a resistance test vector designated RTV-300. RTV-300 was then tested in a phenotypic assay to determine accurately and quantitatively the level of susceptibility to a panel of anti-retroviral drugs. […] An IC50 was determined for the resistance test vector pool for each drug tested. The pattern of susceptibility to all of the drug tested was examined and compared to known patterns of susceptibility.

[4] = system: Y181C-F227L-RTV; assay: Phenotypic susceptibility assay, Y181C-F227L-RTV; details: values <1 = increased susceptibility
Source text: as §1
as §2, with “Md.).” for “Md.). Before infection, target cells (293 and 293/T) were plated in cell culture media. Control infections were performed using cell culture media from mock transfections (no DNA) or transfections containing the resistance test vector plasmid DNA without the envelope expression plasmid. One to three or more days after infection the media was removed and cell lysis buffer (Promega) was added to each well.”

[5] = system: F227L-RTV (HIV reverse transcriptase F227L); assay: Phenotypic susceptibility assay, F227L-RTV; details: values <1 = increased susceptibility
Source text: as §1
as §2, with “Md.).” for “Md.). Before infection, target cells (293 and 293/T) were plated in cell culture media. Control infections were performed using cell culture media from mock transfections (no DNA) or transfections containing the resistance test vector plasmid DNA without the envelope expression plasmid. One to three or more days after infection the media was removed and cell lysis buffer (Promega) was added to each well.”

[6] = system: L100I-RTV (HIV reverse transcriptase L100I); assay: Phenotypic susceptibility assay, L100I-RTV; details: site directed mutant
Source text: as §1
Host cells were seeded in 10-cm-diameter dishes and were transfected several days after plating with resistance test vector plasmid DNA and the envelope expression vector. Transfections were performed using a calcium-phosphate precipitation procedure. […] HIV capsid protein (p24) levels in the harvested cell culture media were determined by an EIA method as described by the manufacturer (SIAC; Frederick, Md.). […] The inhibitory effect of the drug was determined using the following equation: […]
The mutations Y188L, L100I and K103N were introduced alone and in combinationn into resistance test vectors using the mega-primer method for site-directed mutagenesis (Sakar and Sommar, Ibid.). […] We determined the pattern of phenotypic susceptibility to the NNRTIs, delavirdine, nevlrapine and efavirenz, in all 6 vectors.

[7] = system: RTV-1058 Clone 5 (L100I and K103N); assay: Phenotypic susceptibility assay, RTV-1058 clone 5
Procedure: The resistance test vectors containing a functional luciferase gene cassette were constructed and host cells were transfected with the resistance test vector DNA. The resistant test vectors contained patient-derived reverse transcriptase and protease sequences that were either susceptible or resistant to the antiretroviral agents, such as nucleoside reverse transcriptase inhibitors, non-nucleoside reverse transcriptase inhibitors and protease inhibitors. […] The IC50 values were determined by plotting percent drug inhibition vs. log10 drug concentration.
as §3
A resistance test vector was constructed as described in Example 1 from a patient sample designated 98-1058. […] An IC50 was determined for the resistance test vector pool for each drug tested.

[8] = system: A98G-G190S-RTV; assay: Phenotypic susceptibility assay, A98G-G190S-RTV; details: values <1 = increased susceptibility
Source text: as §1
as §2, with “Md.).” for “Md.). Before infection, target cells (293 and 293/T) were plated in cell culture media. Control infections were performed using cell culture media from mock transfections (no DNA) or transfections containing the resistance test vector plasmid DNA without the envelope expression plasmid. One to three or more days after infection the media was removed and cell lysis buffer (Promega) was added to each well.”

For `CC(C)Nc1cccnc1N1CCN(C(=O)c2cc3cc(NS(C)(=O)=O)ccc3[nH]2)CC1` [delavirdine], the “change in susceptibility compared to wild type reference RTV” value (“change … to wild type reference RTV” for short) [1] was “slightly more susceptible to delavirdine”, the “change … to wild type reference RTV” value ([1]; listed as delviridine) was “increased susceptibility” and the “fold change in susceptibility compared to wild type control RTV” value (from here on “fold change in susceptibility”) [2] was 1.6 fold. The “fold decrease in susceptibility (IC50)” value [3] was 25 fold, the “fold change in susceptibility” value [4] was 0.89 fold and the “fold change in susceptibility” value [5] was 0.03 fold. For the same compound, the “fold loss of susceptibility compared to wild type control RTV” value (“fold loss … to wild type control RTV” below) [6] was 30 fold, the “fold loss of susceptibility (IC50)” value [7] was 250 fold and the “fold change in susceptibility” value [8] was 0.8 fold.

In the case of `O=C1Nc2ccc(Cl)cc2[C@@](C#CC2CC2)(C(F)(F)F)O1` [efavirenz], the “fold change in susceptibility” value ([1]; site directed mutant) is reported as 8 fold, the “fold change in susceptibility” value [2] is reported as 1.4 fold and the “fold change in susceptibility” value [4] is reported as 0.99 fold. The “fold change in susceptibility” value [5] was 0.48 fold, the “fold loss … to wild type control RTV” value [6] was 10 fold and the “fold change in susceptibility” value [8] was “greater than 250 fold”.

In the case of `Cc1ccnc2c1NC(=O)c1cccnc1N2C1CC1` [nevirapine], the “change … to wild type reference RTV” value [1] is reported as “markedly less susceptible to nevirapine”, the “fold change in susceptibility” value [2] is reported as 1.3 fold and the “fold decrease in susceptibility (IC50)” value [3] is reported as “greater than 800 fold”. For the same compound, the “fold change in susceptibility” value [4] was 285 fold, the “fold change in susceptibility” value [5] was 3 fold and the “fold loss … to wild type control RTV” value [6] was 3 fold. The “fold loss of susceptibility (IC50)” value [7] was 120 fold and the “fold change in susceptibility” value [8] was “greater than 800 fold”.
